The test is described as follows: Inhibitory activity against binding of horseradish peroxidase labelled Maclura pomifera, isolated from the seeds of osage orange tree to poly (acrylamide-co-allyl alpha-Galactopyranoside.

One may read the IC50 as the concentration at which inhibition is half-maximal. Read a high IC50 as a need for much substance. On to `CC(=O)N[C@@H](CCCCNC(=O)c1cc(NC(=O)CNC(=O)[C@H](C)NC(=O)C[C@H]2O[C@H](CO)[C@H](O)[C@H](O)[C@H]2O)cc(NC(=O)CNC(=O)[C@@H](C)NC(=O)C[C@H]2O[C@H](CO)[C@H](O)[C@H](O)[C@H]2O)c1)C(=O)NCC(=O)NCc1ccccc1`, for which the IC50 was 2840 µM. Turning to `CC(=O)N[C@@H](CCCCN(CCC1OC(CO)C(O)C(O)C1O)CCC1OC(CO)C(O)C(O)C1O)C(=O)NCC(N)=O` (stereo partly specified), the IC50 stood at 1480 µM. With `CC(=O)N[C@@H](CCCCNC(=O)CC1OC(CO)C(O)C(O)C1O)C(=O)NCC(N)=O` (stereo partly specified) the figure was 4180 µM; with `CCN(CC)C(=O)CC1OC(CO)C(O)C(O)C1O` (stereo unspecified), 2570 µM.

As to `CC(=O)N[C@@H](CCCCNC(=O)c1cc(NC(=O)CNC(=O)[C@H]2CCCN2C(=O)C[C@@H]2O[C@@H](CO)[C@H](O)[C@H](O)[C@@H]2O)cc(NC(=O)CNC(=O)[C@@H]2CCCN2C(=O)C[C@H]2O[C@@H](CO)[C@H](O)[C@H](O)[C@@H]2O)c1)C(=O)NCC(=O)NCc1ccccc1`, the IC50 was 1500 µM. Under `CCN(CC)C(=O)CNC(=O)[C@H](CCCCNC(=O)CN(CCC1OC(CO)C(O)C(O)C1O)C(=O)CC1OC(CO)C(O)C(O)C1O)NC(C)=O` (stereo partly specified) stands 4310 µM.

For the origin of these results see ChEMBL document CHEMBL1130982, “Diversity of C-linked neoglycopeptides for the exploration of subsite-assisted carbohydrate binding interactions” (Bioorg Med Chem Lett, 1998).
